Where two headings read alike, the source gives them in different places. Bounds are passed on as bounds.

The target of one experiment is T1, Helios (Homo sapiens, UniProt Q9UKS7).
T1 construct: endogenous in cells; host or cells: Jurkat cells, CRISPR/Cas9 knock-in of HiBit at the IKZF2 locus
Put plainly: Helios degradation in Jurkat/Helios/HiBit cells (Nano-Glo luminescence). Type of experiment: cell-based. The conditions noted are these: 18 hr, read-out: Helios Jurkat Hibit IC50. The method, then:
For Helios, a stable Jurkat cell line was engineered using CRISPR/Cas9 to insert an in-frame HiBit tag into the carboxy-terminal reading frame of the IKZF2 gene. The sequence of human Helios is shown below:
Test compounds were transferred to 1536 well plates using an acoustic dispenser, and Jurkat/Helios/HiBit cells in DMEM/10% FCS were plated at 10,000 cells/well in a final volume of 5 μL. Cells were incubated at 37 C, 95% RH for 18 hr. Luciferase activity was measured by adding 2 μL/well of Nano-Glo reagent (Promega), incubating at RT for 30 min, and reading luminescence on a microtiter plate reader.
(§1) To determine the EC50 value of a compound for the degradation of a given substrate (concentration of compound that achieves half the maximum degradation observed), a four-parameter logistic model (sigmoidal dose-response model) (FIT=(A+{(B−A)/1+[(C/x)D]})) where C is the inflection point (EC50), D is the […], and A and B are the low and high limits of the fit, respectively) was used. All substrate degradation curves were processed and evaluated using ActivityBase (IDBS), a data analysis software package. Ymax is the % protein degraded (Ymin=100−Ymax and is minimum percent protein remaining).

Experiment [1] concerns the target T2, IKZF1 ZNF2_ZNF3 Q1F degron-tagged CD19 CAR (Homo sapiens, UniProt Q13422, Q146F).
T2 construct: ZNF2_ZNF3 Q1F degron (GERPFFCNQCGASFTQKGNLLRHIKLHSGEKPFKCHLCNYACRRRDALTGHLRTHS); fused on or other part: anti-CD19 scFv, CD28 transmembrane domain, 4-1BB costimulatory domain, CD3 zeta signaling domain (the CAR that carries the degron), and Nluc
As to the kind of experiment: Degradation of Q1F degron-tagged CD19 CAR in Jurkat cells (flow cytometry of CAR levels). Conditions: for DC50: Jurkat cells expressing CD19 CAR tagged with IKZF1 ZNF2_ZNF3 Q1F, 18 hours at 37° C., CAR levels normalized to untreated cells, read-out: Q1F Jurkat IC50; for Dmax: read-out: Q1F Jurkat-YMax. Type of experiment: cell-based.
Description: Q1F degron-targeting compounds were screened in Jurkat cells engineered to express a IKZF1 ZNF2_ZNF3 Q1F. The cell line was generated with lentiviral vectors containing CD19 CARs tagged with IKZF1 ZNF2_ZNF3 QIF Nluc, which were transduced into Jurkat cells. The CD19 CAR comprised an anti-CD19 scFv, a CD28 transmembrane domain, a 4-1BB costimulatory domain, a CD3ζ signaling domain, and a ZNF2_ZNF3 Q1F degron (GERPFFCNQCGASFTQKGNLLRHIKLHSGEKPFKCHLCNYACRRRDALTGHLRTHS; SEQ ID NO: 1; Q1F substitution underlined). Transduced cells were treated with a titration of each small molecule or no drug and then incubated at 37° C. for 18 hours. Cells were washed and stained with appropriate staining reagent to measure CAR levels. The cells were incubated at 4° C. in the staining reagents for 20 mins and then washed 3 times before being read on the flow cytometer. CAR levels were normalized to cells that had not been treated with drug. EC50 and Ymin values were calculated using the resulting titration curve. This identified small molecules that potently degraded the Q1F degron-tagged CARs (Table 1).
as §1

Where [2] appears, read: Ymax is the % protein degraded, Jurkat cells expressing Q1F degron-tagged CD19 CAR, 18 hours.

T2 sequence (Q13422 whole entry Q146F, the tested form may be a part): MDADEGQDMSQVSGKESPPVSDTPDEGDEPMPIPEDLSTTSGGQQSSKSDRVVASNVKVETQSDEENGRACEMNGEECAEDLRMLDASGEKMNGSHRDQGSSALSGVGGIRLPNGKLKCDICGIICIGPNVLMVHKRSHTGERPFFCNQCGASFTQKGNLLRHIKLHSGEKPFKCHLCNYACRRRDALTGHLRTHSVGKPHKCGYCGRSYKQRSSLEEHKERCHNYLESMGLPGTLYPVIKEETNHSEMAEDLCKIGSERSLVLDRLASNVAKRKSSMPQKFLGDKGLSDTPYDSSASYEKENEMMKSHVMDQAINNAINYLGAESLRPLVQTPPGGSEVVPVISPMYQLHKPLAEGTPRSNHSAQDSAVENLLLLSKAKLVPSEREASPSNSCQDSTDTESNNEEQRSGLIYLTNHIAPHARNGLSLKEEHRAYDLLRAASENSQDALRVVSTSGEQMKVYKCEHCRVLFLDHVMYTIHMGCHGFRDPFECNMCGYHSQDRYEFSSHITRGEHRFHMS
T1 sequence (Q9UKS7 whole entry): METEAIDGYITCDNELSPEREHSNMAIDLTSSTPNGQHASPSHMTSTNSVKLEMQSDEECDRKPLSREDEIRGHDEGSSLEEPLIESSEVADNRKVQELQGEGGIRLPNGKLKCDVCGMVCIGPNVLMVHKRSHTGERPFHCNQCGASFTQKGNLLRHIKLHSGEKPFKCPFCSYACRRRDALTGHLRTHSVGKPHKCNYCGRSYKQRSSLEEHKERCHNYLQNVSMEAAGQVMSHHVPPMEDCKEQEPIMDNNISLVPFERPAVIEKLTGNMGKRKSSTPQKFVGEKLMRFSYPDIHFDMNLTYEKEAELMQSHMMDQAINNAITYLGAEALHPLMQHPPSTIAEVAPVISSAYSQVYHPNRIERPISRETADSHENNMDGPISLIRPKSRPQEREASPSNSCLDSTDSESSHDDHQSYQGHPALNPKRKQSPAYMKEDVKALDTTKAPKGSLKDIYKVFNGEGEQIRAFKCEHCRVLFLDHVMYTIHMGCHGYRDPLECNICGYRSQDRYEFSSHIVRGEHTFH
T1 sequence (Q96SW2 whole entry, further chain): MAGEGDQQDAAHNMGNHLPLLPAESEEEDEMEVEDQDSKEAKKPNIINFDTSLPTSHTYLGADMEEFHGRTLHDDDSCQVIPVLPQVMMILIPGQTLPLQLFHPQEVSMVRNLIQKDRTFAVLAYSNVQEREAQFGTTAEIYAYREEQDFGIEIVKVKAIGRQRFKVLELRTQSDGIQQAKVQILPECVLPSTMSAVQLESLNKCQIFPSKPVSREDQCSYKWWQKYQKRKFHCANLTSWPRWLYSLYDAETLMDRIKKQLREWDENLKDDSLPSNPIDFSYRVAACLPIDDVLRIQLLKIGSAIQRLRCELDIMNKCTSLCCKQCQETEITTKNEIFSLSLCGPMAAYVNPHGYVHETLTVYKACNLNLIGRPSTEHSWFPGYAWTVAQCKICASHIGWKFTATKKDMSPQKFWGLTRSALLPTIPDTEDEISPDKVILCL
T1 sequence (Q16531 whole entry partner): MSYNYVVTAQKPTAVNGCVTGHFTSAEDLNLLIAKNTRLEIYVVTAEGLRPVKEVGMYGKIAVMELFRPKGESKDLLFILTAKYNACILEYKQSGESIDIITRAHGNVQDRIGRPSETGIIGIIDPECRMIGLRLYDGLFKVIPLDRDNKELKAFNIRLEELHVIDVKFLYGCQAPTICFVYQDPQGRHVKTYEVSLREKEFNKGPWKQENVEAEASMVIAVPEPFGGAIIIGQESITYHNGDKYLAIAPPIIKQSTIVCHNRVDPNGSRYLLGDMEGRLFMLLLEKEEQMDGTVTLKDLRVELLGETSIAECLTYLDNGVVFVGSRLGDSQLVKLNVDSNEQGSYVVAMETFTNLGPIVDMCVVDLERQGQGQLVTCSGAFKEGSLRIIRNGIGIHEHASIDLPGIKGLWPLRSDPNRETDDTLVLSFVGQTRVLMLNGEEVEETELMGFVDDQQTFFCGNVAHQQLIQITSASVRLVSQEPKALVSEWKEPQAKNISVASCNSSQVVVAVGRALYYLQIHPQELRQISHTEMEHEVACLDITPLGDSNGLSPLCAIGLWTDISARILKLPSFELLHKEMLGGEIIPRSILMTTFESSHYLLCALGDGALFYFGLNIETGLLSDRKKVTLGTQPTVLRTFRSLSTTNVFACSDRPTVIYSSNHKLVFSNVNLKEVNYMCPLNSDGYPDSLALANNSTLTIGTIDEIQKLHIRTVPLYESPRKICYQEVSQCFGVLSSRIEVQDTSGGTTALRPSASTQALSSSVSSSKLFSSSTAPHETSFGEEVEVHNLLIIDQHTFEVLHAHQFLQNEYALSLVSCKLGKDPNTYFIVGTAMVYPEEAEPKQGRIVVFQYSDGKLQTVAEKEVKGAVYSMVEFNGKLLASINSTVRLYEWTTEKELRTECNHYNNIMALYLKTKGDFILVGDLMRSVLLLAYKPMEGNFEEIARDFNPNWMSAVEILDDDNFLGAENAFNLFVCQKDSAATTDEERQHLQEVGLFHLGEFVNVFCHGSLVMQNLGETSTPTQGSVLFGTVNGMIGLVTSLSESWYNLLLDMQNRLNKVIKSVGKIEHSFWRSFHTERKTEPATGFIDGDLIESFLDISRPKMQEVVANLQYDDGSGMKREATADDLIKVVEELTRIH

With `O=C1CCC(N2Cc3c(cc(F)c(C4CCN(Cc5ccc6ncsc6c5)CC4)c3F)C2=O)C(=O)N1` (stereo not drawn) [Compound 18, 3-(5-(1-(benzo[d]thiazol-6-ylmethyl)piperidin-4-yl)-4,6-difluoro-1-oxoisoindolin-2-yl) piperidine-2,6-dione], the DC50 at Helios is no less than 10000 nM; in experiment [1], 0.576 nM. Further, the Dmax in experiment [1] (setting [2]) is 93.4%.

On to `O=C1CCC(N2Cc3c(cc(F)c(C4CCN(Cc5cccnc5)CC4)c3F)C2=O)C(=O)N1` (stereo not drawn) [Compound 107, 3-(4,6-difluoro-1-oxo-5-(1-(pyridin-3-ylmethyl)piperidin-4-yl)isoindolin-2-yl)piperidine-2,6-dione], for which the DC50 is no less than 10000 nM at Helios and 2.1 nM in experiment [1]. Also, the Dmax in experiment [1] (setting [2]) amounted to 89.7%.

On to `O=C1CCC(N2Cc3c(cc(F)c(C(=O)N4CCc5c(Cl)cccc5C4)c3F)C2=O)C(=O)N1` (stereo not drawn) [Compound 71, 3-[5-(5-chloro-3,4-dihydro-1H-isoquinoline-2-carbonyl)-4,6-difluoro-1-oxo-isoindolin-2-yl]piperidine-2,6-dione], for which the DC50 on Helios was no less than 10000 nM; in experiment [1] it was 23.7 nM. Moreover, the Dmax in experiment [1] (setting [2]) was 95.7%.

On to `O=C1CCC(N2Cc3c(cc(F)c(C4(O)CCN(Cc5coc(-c6cccs6)n5)CC4)c3F)C2=O)C(=O)N1` (stereo not drawn) [Compound 14, 3-(4,6-difluoro-5-(4-hydroxy-1-((2-(thiophen-2-yl)oxazol-4-yl)methyl)piperidin-4-yl)-1-oxoisoindolin-2-yl)piperidine-2,6-dione], for which the values for the DC50 (at Helios; in experiment [1]) were no less than 10000 nM and 22.4 nM, respectively. Moreover, the Dmax in experiment [1] (setting [2]) is 66.9%.

For the compound `O=C1CCC(N2Cc3cc(C4CCN(Cc5ccc6scnc6c5)CC4)c(F)cc3C2=O)C(=O)N1` (stereo not drawn) [Compound 86, 3-(5-(1-(benzo[d]thiazol-5-ylmethyl)piperidin-4-yl)-6-fluoro-1-oxoisoindolin-2-yl)piperidine-2,6-dione], the DC50 on Helios was no less than 10000 nM; in experiment [1] it was 1.94 nM. In addition, the Dmax in experiment [1] (setting [2]) came out at 92.1%.

Regarding `Cc1nc(CN2CCC(c3c(F)cc4c(c3F)CN(C3CCC(=O)NC3=O)C4=O)CC2)c(C)o1` (stereo not drawn) [Compound 56, 3-(5-(1-((2,5-dimethyloxazol-4-yl)methyl)piperidin-4-yl)-4,6-difluoro-1-oxoisoindolin-2-yl)piperidine-2,6-dione], the figures for the DC50 (at Helios; in experiment [1]) were no less than 10000 nM and 0.571 nM, respectively. Also, the Dmax in experiment [1] (setting [2]) turned out to be 84.4%.

Turning to `O=C1CCC(N2Cc3c(cc(F)c(C4CCN(Cc5cccc(-n6cccn6)c5)CC4)c3F)C2=O)C(=O)N1` (stereo not drawn) [Compound 49, 3-(5-(1-(3-(1H-pyrazol-1-yl)benzyl)piperidin-4-yl)-4,6-difluoro-1-oxoisoindolin-2-yl)piperidine-2,6-dione], the values for the DC50 (on Helios; in experiment [1]) were no less than 10000 nM and 0.108 nM, respectively. Besides, the Dmax in experiment [1] (setting [2]) amounted to 91%.

As for `CS(=O)(=O)c1ccc(CN2CCC(c3c(F)cc4c(c3F)CN(C3CCC(=O)NC3=O)C4=O)CC2)cc1` (stereo not drawn) [Compound 62, 3-(4,6-difluoro-5-(1-(4-(methylsulfonyl)benzyl)piperidin-4-yl)-1-oxoisoindolin-2-yl)piperidine-2,6-dione], the DC50 on Helios was no less than 10000 nM; in experiment [1] it was 0.168 nM. Moreover, the Dmax in experiment [1] (setting [2]) came to 92.6%.

Take `Cc1cc(Br)cnc1CN1CCC(O)(c2c(F)cc3c(c2F)CN(C2CCC(=O)NC2=O)C3=O)CC1` (stereo not drawn) [Compound 13, 3-(5-(1-((5-bromo-3-methylpyridin-2-yl)methyl)-4-hydroxypiperidin-4-yl)-4,6-difluoro-1-oxoisoindolin-2-yl)piperidine-2,6-dione]: the DC50 is no less than 10000 nM on Helios and 86 nM in experiment [1]. The Dmax in experiment [1] (setting [2]) was 62.4%.

As to `O=C1CCC(N2Cc3c(cc(F)c(C4CCN(Cc5cc(F)ccc5-n5cccn5)CC4)c3F)C2=O)C(=O)N1` (stereo not drawn) [Compound 47, 3-(4,6-difluoro-5-(1-(5-fluoro-2-(1H-pyrazol-1-yl)benzyl)piperidin-4-yl)-1-oxoisoindolin-2-yl)piperidine-2,6-dione], the DC50 is no less than 10000 nM on Helios and 2.5 nM in experiment [1]. The Dmax in experiment [1] (setting [2]) turned out to be 88.8%.

For `N#Cc1ccc2c(c1)CN(C(=O)c1c(F)cc3c(c1F)CN(C1CCC(=O)NC1=O)C3=O)CC2` (stereo not drawn) [Compound 70, 2-[2-(2,6-dioxo-3-piperidyl)-4,6-difluoro-1-oxo-isoindoline-5-carbonyl]-3,4-dihydro-1H-isoquinoline-7-carbonitrile], the DC50 on Helios is no less than 10000 nM; in experiment [1] it was 15 nM. Also, the Dmax in experiment [1] (Jurkat, 18 h) amounted to 95.5%.

As for `O=C1CCC(N2Cc3c(cc(F)c(C4CCN(Cc5cnc6ccccc6n5)CC4)c3F)C2=O)C(=O)N1` (stereo not drawn) [Compound 116, 3-(4,6-difluoro-1-oxo-5-(1-(quinoxalin-2-ylmethyl)piperidin-4-yl)isoindolin-2-yl)piperidine-2,6-dione], the DC50 is no less than 10000 nM on Helios and 3.19 nM in experiment [1]. The Dmax in experiment [1] (setting [2]) came out at 85.5%.

As to `O=C1CCC(N2Cc3cc(C4CCN(Cc5nc6ccccc6s5)CC4)c(F)cc3C2=O)C(=O)N1` (stereo not drawn) [Compound 83, 3-(5-(1-(benzo[d]thiazol-2-ylmethyl)piperidin-4-yl)-6-fluoro-1-oxoisoindolin-2-yl)piperidine-2,6-dione], the DC50 is no less than 10000 nM on Helios and 19.9 nM in experiment [1]. Also, the Dmax in experiment [1] (setting [2]) worked out at 76.8%.

Consider `O=C1CCC(N2Cc3c(cc(F)c(C4CCN(CCO)CC4)c3F)C2=O)C(=O)N1` (stereo not drawn) [Compound 123, 3-(4,6-difluoro-5-(1-(2-hydroxyethyl)piperidin-4-yl)-1-oxoisoindolin-2-yl)piperidine-2,6-dione], for which the DC50 at Helios was no less than 10000 nM; in experiment [1] it was 21.3 nM. The Dmax in experiment [1] (setting [2]) worked out at 74.5%.

As for `CNc1ccc2c(n1)CN(C(=O)c1c(F)cc3c(c1F)CN(C1CCC(=O)NC1=O)C3=O)C2` (stereo not drawn) [Compound 73, 3-[4,6-difluoro-5-[2-(methylamino)-5,7-dihydropyrrolo[3,4-b]pyridine-6-carbonyl]-1-oxo-isoindolin-2-yl]piperidine-2,6-dione], the DC50 on Helios is no less than 10000 nM; in experiment [1], 3.11 nM. Also, the Dmax in experiment [1] (Jurkat, 18 h) is 95.3%.

Take `O=C1CCC(N2Cc3c(cc(F)c(C4(O)CCN(Cc5nc6ccccc6s5)CC4)c3F)C2=O)C(=O)N1` (stereo not drawn) [Compound 57, 3-(5-(1-(benzo[d]thiazol-2-ylmethyl)-4-hydroxypiperidin-4-yl)-4,6-difluoro-1-oxoisoindolin-2-yl)piperidine-2,6-dione]: the results for the DC50 (on Helios; in experiment [1]) were no less than 10000 nM and 101 nM, respectively. For the same compound, in experiment [1] (setting [2]), the Dmax was 63.2%.

For `CS(=O)(=O)NCCN1CCC(c2c(F)cc3c(c2F)CN(C2CCC(=O)NC2=O)C3=O)CC1` (stereo not drawn) [Compound 98, N-(2-(4-(2-(2,6-dioxopiperidin-3-yl)-4,6-difluoro-1-oxoisoindolin-5-yl)piperidin-1-yl)ethyl)methanesulfonamide], the DC50 on Helios was no less than 10000 nM; in experiment [1] it was 39.8 nM. For the same compound, in experiment [1] (setting [2]), the Dmax stood at 76.9%.

Turning to `O=C1CCC(N2Cc3c(cc(F)c(C4(O)CCN(Cc5ccc6ncsc6c5)CC4)c3F)C2=O)C(=O)N1` (stereo not drawn) [Compound 12], the DC50 at Helios is no less than 10000 nM; in experiment [1], 4.33 nM. For the same compound, the Dmax in experiment [1] (setting [2]) amounted to 83.4%.

Regarding `Cc1ccc(CN2CCC(c3c(F)cc4c(c3F)CN(C3CCC(=O)NC3=O)C4=O)CC2)cc1` (stereo not drawn) [Compound 45, 3-(4,6-difluoro-5-(1-(4-methylbenzyl)piperidin-4-yl)-1-oxoisoindolin-2-yl)piperidine-2,6-dione], the DC50 on Helios is no less than 10000 nM; in experiment [1], 0.343 nM. Also, the Dmax in experiment [1] (setting [2]) stood at 90.6%.

Consider `O=C1CCC(N2Cc3c(cc(F)c(C4CCN(Cc5ccsc5)CC4)c3F)C2=O)C(=O)N1` (stereo not drawn) [Compound 6, 3-(4,6-difluoro-1-oxo-5-(1-(thiophen-3-ylmethyl)piperidin-4-yl)isoindolin-2-yl)piperidine-2,6-dione], for which the DC50 is no less than 10000 nM on Helios and 5 nM in experiment [1]. Further, in experiment [1] (setting [2]), the Dmax was found to be 89.1%.

The values above are taken from patent US20240327381A1, “Compounds and Compositions for Selective Degradation of Engineered Proteins” (Celgene Corporation, priority 2023, published 2024).
